Patent publication US11312726B2, “Thienodiazepine derivatives and application thereof” (priority 2017, dated 2022)

Legend:
[1] = test system: Human breast cancer MDA-MB-231_luc cell subcutaneous xenograft tumor; assay: In vivo pharmacodynamics, MDA-MB-231_luc subcutaneous xenograft tumor model; details: 50 mg/kg PO BID × 21 days
Method: In Vivo Pharmacodynamics Study of Compound 32 on Human Breast Cancer MDA-MB-231_luc Cell Subcutaneous Xenograft Tumor Model
Strain: BALB/c nude mouse
Week-age and weight: 6-8 weeks of age, 18-22 grams of body weight
Supplier: Shanghai Sippr-BK laboratory animal Co. Ltd.
(§1) 3. Experiment Methods and Steps
Human breast cancer MDA-MB-231_luc cells were cultured in monolayer in vitro and the culture conditions were RPMI-1640 culture medium (supplier: Gibco; article number: 22400-089; manufacturing batch number: 4868546) with 10% fetal bovine serum, 100 U/ml penicillin and 100 μg/ml streptomycin. The culture was performed at 37° C. in 5% CO2. Conventional digestion treatment with pancreatin-EDTA for passage was carried out twice a week. When the cells were in the exponential growth phase, the cells were harvested, counted, and inoculated.
(§2) 3.2 Tumor Cell Inoculation
0.2 mL of 10×10^6 MDA-MB-231_luc cells were subcutaneously inoculated into the right-back of each nude mouse (PBS:Matrigel=1:1). The grouping and administration was started when the average tumor volume reached 100-150 mm^3.
3.3 Tumor Measurement and Experiment Indices
The experiment index was to investigate whether tumor growth was inhibited, delayed or cured. Tumor diameter was measured twice a week with vernier calipers. The equation for calculating the tumor volume was V=0.5×a×b^2, wherein a and b represented the major and minor diameters of the tumor, respectively.
The tumor inhibition effect of the compound was evaluated by TGI (%) or relative tumor proliferation rate T/C (%). TGI (%) reflected the tumor growth inhibition rate.
(§3) Relative tumor proliferation rate T/C (%) was calculated according to the below equation: T/C %=TRTV/CRTV×100% (TRTV: RTV of the treatment group; CRTV: RTV of the negative control group). The relative tumor volume (RTV) was calculated according to the results of the tumor measurement. The calculation equation was RTV=Vt/V0, where V0 was the average tumor volume measured at the grouping and administration (i.e. d0), and Vt was the average tumor volume at the time of a certain measurement. TRTV and CRTV were obtained from the data on the same day.
(§4) At the end of the experiment, the tumor weight would be measured and the Tweight/Cweight percentage would be calculated. Tweight and Cweight represented the tumor weights of the administration group and the medium control group, respectively.
Statistical analysis included mean value and standard error (SEM) of the tumor volume of each group at each time point. […] The comparison between two groups was analyzed by T-test, and the comparison between three or more groups was analyzed by one-way ANOVA.

[2] = test system: MC38 mouse colon cancer cell transplantation tumor; assay: In vivo anti-tumor effect, MC38 mouse colon cancer transplantation tumor model; details: for relative tumor proliferation rate T/C / tumor growth inhibition rate TGI: 20th day after administration
Method: In Vivo Anti-Tumor Effect of Compound 32 in MC38 Mouse Colon Cancer Cell Animal Transplantation Tumor Model
Week-age and weight: 6-7 weeks of age, 16-20 grams of body weight
Supplier: Shanghai SLAC Laboratory Animal Co., Ltd.
as §1
Mouse colon cancer MC38 cells (OBiO Technology (Shanghai) Corp., Ltd.) were cultured in monolayer in vitro, and the culture conditions were DMEM culture medium (Gibco; article number: 12100) with 10% fetal bovine serum. The culture was performed at 37° C. in 5% CO2 in an incubator. Conventional digestion treatment with 0.25% pancreatin-EDTA for passage was carried out. When the cells were in the exponential growth phase and the saturation was 80%-90%, the cells were harvested, counted, and inoculated.
as §2
0.1 mL of 2×10^5 MC38 cells were subcutaneously inoculated into the right-back of each mouse. The random grouping and administration was carried out according to the tumor volume when the average tumor volume reached about 70 mm^3.
Tumor diameter was measured twice a week with vernier calipers. The equation for calculating tumor volume was V=0.5×a×b^2, wherein a and b represented the major and minor diameters of the tumor, respectively.
as §3, with “The tumor inhibition effect of the compound was evaluated by TGI (%) or relative tumor proliferation rate T/C (%). Relative” for “Relative”, “(%)=TRTV/CRTV×100%” for “(%) was calculated according to the below equation: T/C %=TRTV/CRTV×100%”, “D0),” for “d0),”
TGI (%) reflected the tumor growth inhibition rate.
as §4
Statistical analysis was performed using SPSS software based on the tumor volume and the tumor weight at the end of the experiment. The comparison between two groups was analyzed by t-test, and the comparison between three or more groups was analyzed by one-way ANOVA.

[3] = each administration group (15, 25, 50 mg/kg)

Cc1sc2c(c1C)C(c1ccc(Cl)cc1)=N[C@@H](CC(=O)Nc1ccc3c(c1)COC3=O)c1nnc(C)n1-2 [Compound 32]
change in body weight of the animals [1]: no significant change
tolerance of the animals [1]: well tolerated
relative tumor proliferation rate T/C ([1]; 21st day after administration): 52.99%
tumor growth inhibition rate TGI ([1]; 21st day after administration): 54.85%
relative tumor proliferation rate T/C ([2]; 15 mg/kg p.o. BID × 20 days): 33.68%
tumor growth inhibition rate TGI ([2]; 15 mg/kg p.o. BID × 20 days): 68.81%
relative tumor proliferation rate T/C ([2]; 25 mg/kg p.o. BID × 20 days): 27.59%
tumor growth inhibition rate TGI ([2]; 25 mg/kg p.o. BID × 20 days): 75.21%
relative tumor proliferation rate T/C ([2]; 50 mg/kg p.o. BID × 20 days): 10.04%
tumor growth inhibition rate TGI ([2]; 50 mg/kg p.o. BID × 20 days): 93.46%
tolerance of the animals [2, 3]: good tolerance
tumor inhibition effect (in words) [2, 3]: Significant tumor inhibition effects
